According to paper PMC3445516 (PLoS ONE, 2012):

Columns and labels:
Experiment in all cases: Ambit kinase profiling, competition binding
SgK085 = biological target: T1, SgK085 (Homo sapiens, UniProt Q86YV6); conditions: compound concentration 10 uM, read-out: Percent Competition
T1 construct: purchased Ambit Biosciences (KINOMEscan)
Excerpt: (§1) Supplement pone.0044653.s004.xls, sheet "Compound 122" | column: Percent Competition

AXL = biological target: T2, AXL (Homo sapiens, UniProt P30530); conditions: compound concentration 10 uM, read-out: Percent Competition
T2 construct: purchased Ambit Biosciences (KINOMEscan)
Excerpt: as §1

CHEK1 = biological target: T3, CHEK1 (Homo sapiens, UniProt O14757); conditions: compound concentration 10 uM
T3 construct: purchased Ambit Biosciences (KINOMEscan)
T3 sequence (O14757 whole entry): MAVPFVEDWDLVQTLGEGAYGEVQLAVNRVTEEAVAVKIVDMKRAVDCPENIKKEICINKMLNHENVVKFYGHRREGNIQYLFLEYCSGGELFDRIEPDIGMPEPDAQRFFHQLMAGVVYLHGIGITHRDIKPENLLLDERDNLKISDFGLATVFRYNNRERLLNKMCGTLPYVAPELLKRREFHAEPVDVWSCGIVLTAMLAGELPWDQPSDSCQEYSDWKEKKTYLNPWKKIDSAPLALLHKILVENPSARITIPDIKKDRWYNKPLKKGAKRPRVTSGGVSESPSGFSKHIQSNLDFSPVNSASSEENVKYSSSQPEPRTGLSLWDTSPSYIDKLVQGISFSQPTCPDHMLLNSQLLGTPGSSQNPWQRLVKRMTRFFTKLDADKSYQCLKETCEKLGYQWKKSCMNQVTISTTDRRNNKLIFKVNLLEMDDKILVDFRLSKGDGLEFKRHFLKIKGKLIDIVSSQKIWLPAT
Excerpt: as §1

PIM2 = biological target: T4, PIM2 (Homo sapiens, UniProt Q9P1W9); conditions: compound concentration 10 uM, read-out: Percent Competition
T4 construct: purchased Ambit Biosciences (KINOMEscan)
Excerpt: as §1

TIE2 = biological target: T5, TIE2 (Homo sapiens, UniProt Q02763); conditions: compound concentration 10 uM, read-out: Percent Competition
T5 construct: purchased Ambit Biosciences (KINOMEscan)
Excerpt: as §1

CDK8 = biological target: T6, CDK8 (Homo sapiens, UniProt P49336); conditions: compound concentration 10 uM
T6 construct: purchased Ambit Biosciences (KINOMEscan)
Excerpt: as §1

MYO3A = biological target: T7, MYO3A (Homo sapiens, UniProt Q8NEV4); conditions: compound concentration 10 uM, read-out: Percent Competition
T7 construct: purchased Ambit Biosciences (KINOMEscan)
Excerpt: as §1

TNK2 = biological target: T8, TNK2 (Homo sapiens, UniProt Q07912); conditions: compound concentration 10 uM, read-out: Percent Competition
T8 construct: purchased Ambit Biosciences (KINOMEscan)
Excerpt: as §1

FLT3 = biological target: T9, FLT3 (Homo sapiens, UniProt P36888); conditions: compound concentration 10 uM, read-out: Percent Competition
T9 construct: purchased Ambit Biosciences (KINOMEscan)
Excerpt: as §1

MINK = biological target: T10, MINK (Homo sapiens, UniProt Q8N4C8); conditions: compound concentration 10 uM, read-out: Percent Competition
T10 construct: purchased Ambit Biosciences (KINOMEscan)
Excerpt: as §1

MERTK = biological target: T11, MERTK (Homo sapiens, UniProt Q12866); conditions: compound concentration 10 uM, read-out: Percent Competition
T11 construct: purchased Ambit Biosciences (KINOMEscan)
Excerpt: as §1

PAK3 = biological target: T12, PAK3 (Homo sapiens, UniProt O75914); conditions: compound concentration 10 uM, read-out: Percent Competition
T12 construct: purchased Ambit Biosciences (KINOMEscan)
Excerpt: as §1

LTK = biological target: T13, LTK (Homo sapiens, UniProt P29376); conditions: compound concentration 10 uM, read-out: Percent Competition
T13 construct: purchased Ambit Biosciences (KINOMEscan)
T13 sequence (P29376 17-864): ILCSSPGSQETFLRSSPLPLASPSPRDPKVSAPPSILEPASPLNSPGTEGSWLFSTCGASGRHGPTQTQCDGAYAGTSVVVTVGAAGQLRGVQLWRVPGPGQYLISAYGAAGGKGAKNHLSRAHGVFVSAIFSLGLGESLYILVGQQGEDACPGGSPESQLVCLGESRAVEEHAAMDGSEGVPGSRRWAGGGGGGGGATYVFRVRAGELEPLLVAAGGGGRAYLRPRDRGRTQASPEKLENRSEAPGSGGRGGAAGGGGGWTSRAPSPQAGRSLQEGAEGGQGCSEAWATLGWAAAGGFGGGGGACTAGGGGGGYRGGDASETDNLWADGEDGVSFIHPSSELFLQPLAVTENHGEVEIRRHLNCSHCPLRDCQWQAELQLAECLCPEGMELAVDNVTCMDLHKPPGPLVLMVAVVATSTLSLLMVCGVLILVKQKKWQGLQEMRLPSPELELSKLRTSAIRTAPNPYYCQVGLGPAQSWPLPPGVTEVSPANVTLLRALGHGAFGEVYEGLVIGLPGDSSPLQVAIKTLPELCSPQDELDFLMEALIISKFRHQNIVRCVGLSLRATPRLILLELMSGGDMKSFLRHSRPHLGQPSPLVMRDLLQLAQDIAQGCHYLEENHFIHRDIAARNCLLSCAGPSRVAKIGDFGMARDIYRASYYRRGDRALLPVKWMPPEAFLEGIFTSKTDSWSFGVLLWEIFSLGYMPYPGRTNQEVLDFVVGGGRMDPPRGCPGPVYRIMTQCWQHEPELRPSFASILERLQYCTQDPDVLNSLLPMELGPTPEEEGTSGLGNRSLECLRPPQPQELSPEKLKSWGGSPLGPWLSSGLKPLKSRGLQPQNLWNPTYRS
Excerpt: as §1

[1] = biological target: T14, JAK2(JH1domain-catalytic) (Homo sapiens, UniProt O60674); conditions: compound concentration 10 uM
T14 construct: JAK2(JH1domain-catalytic); purchased Ambit Biosciences (KINOMEscan)
Excerpt: as §1

INSRR = biological target: T15, INSRR (Homo sapiens, UniProt P14616); conditions: compound concentration 10 uM, read-out: Percent Competition
T15 construct: purchased Ambit Biosciences (KINOMEscan)
Excerpt: as §1

MET = biological target: T16, MET (Homo sapiens, UniProt P08581); conditions: compound concentration 10 uM
T16 construct: purchased Ambit Biosciences (KINOMEscan)
Excerpt: as §1

ASK1 = biological target: T17, ASK1 (Homo sapiens, UniProt Q99683); conditions: compound concentration 10 uM, read-out: Percent Competition
T17 construct: purchased Ambit Biosciences (KINOMEscan)
Excerpt: as §1

CSNK2A1 = biological target: T18, CSNK2A1 (Homo sapiens, UniProt P68400); conditions: compound concentration 10 uM, read-out: Percent Competition
T18 construct: purchased Ambit Biosciences (KINOMEscan)
Excerpt: as §1

TLK1 = biological target: T19, TLK1 (Homo sapiens, UniProt Q9UKI8); conditions: compound concentration 10 uM, read-out: Percent Competition
T19 construct: purchased Ambit Biosciences (KINOMEscan)
Excerpt: as §1

ZAP70 = biological target: T20, ZAP70 (Homo sapiens, UniProt P43403); conditions: compound concentration 10 uM, read-out: Percent Competition
T20 construct: purchased Ambit Biosciences (KINOMEscan)
Excerpt: as §1

[2] = biological target: T21, JAK1(JH1domain-catalytic) (Homo sapiens, UniProt P23458); conditions: compound concentration 10 uM
T21 construct: JAK1(JH1domain-catalytic); purchased Ambit Biosciences (KINOMEscan)
Excerpt: as §1

PRKR = biological target: T22, PRKR (Homo sapiens, UniProt P19525); conditions: compound concentration 10 uM
T22 construct: purchased Ambit Biosciences (KINOMEscan)
Excerpt: as §1

DMPK = biological target: T23, DMPK (Homo sapiens, UniProt Q09013); conditions: compound concentration 10 uM, read-out: Percent Competition
T23 construct: purchased Ambit Biosciences (KINOMEscan)
Excerpt: as §1

TESK1 = biological target: T24, TESK1 (Homo sapiens, UniProt Q15569); conditions: compound concentration 10 uM, read-out: Percent Competition
T24 construct: purchased Ambit Biosciences (KINOMEscan)
Excerpt: as §1

[3] = biological target: T25, RPS6KA2(Kin.Dom.1-N-terminal) (Homo sapiens, UniProt Q15349); conditions: compound concentration 10 uM, read-out: Percent Competition
T25 construct: RPS6KA2(Kin.Dom.1-N-terminal); purchased Ambit Biosciences (KINOMEscan)
Excerpt: as §1

PIP5K2B = biological target: T26, PIP5K2B (Homo sapiens, UniProt P78356); conditions: compound concentration 10 uM, read-out: Percent Competition
T26 construct: purchased Ambit Biosciences (KINOMEscan)
Excerpt: as §1

PDGFRB = biological target: T27, PDGFRB (Homo sapiens, UniProt P09619); conditions: compound concentration 10 uM, read-out: Percent Competition
T27 construct: purchased Ambit Biosciences (KINOMEscan)
Excerpt: as §1

DCAMKL3 = biological target: T28, DCAMKL3 (Homo sapiens, UniProt Q9C098); conditions: compound concentration 10 uM, read-out: Percent Competition
T28 construct: purchased Ambit Biosciences (KINOMEscan)
T28 sequence (Q9C098 whole entry): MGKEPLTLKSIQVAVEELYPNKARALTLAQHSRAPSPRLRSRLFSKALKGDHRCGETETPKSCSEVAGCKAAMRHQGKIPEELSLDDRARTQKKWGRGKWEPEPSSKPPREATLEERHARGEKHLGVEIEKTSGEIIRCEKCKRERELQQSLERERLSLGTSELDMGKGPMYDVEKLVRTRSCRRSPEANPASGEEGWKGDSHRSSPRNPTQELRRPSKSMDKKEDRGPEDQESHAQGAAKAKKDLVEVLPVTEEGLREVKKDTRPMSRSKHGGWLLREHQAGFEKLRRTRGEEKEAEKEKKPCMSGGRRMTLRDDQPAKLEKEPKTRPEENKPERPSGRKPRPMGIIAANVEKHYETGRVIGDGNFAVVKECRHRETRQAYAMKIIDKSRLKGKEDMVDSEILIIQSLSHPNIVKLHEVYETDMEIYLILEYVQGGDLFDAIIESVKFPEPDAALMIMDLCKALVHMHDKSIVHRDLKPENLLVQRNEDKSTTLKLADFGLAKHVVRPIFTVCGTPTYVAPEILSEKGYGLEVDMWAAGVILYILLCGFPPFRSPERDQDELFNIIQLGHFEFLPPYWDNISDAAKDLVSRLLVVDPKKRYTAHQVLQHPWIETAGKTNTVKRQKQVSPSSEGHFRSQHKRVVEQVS
Excerpt: as §1

FES = biological target: T29, FES (Homo sapiens, UniProt P07332); conditions: compound concentration 10 uM, read-out: Percent Competition
T29 construct: purchased Ambit Biosciences (KINOMEscan)
Excerpt: as §1

PYK2 = biological target: T30, PYK2 (Homo sapiens, UniProt Q14289); conditions: compound concentration 10 uM, read-out: Percent Competition
T30 construct: purchased Ambit Biosciences (KINOMEscan)
T30 sequence (Q14289 whole entry): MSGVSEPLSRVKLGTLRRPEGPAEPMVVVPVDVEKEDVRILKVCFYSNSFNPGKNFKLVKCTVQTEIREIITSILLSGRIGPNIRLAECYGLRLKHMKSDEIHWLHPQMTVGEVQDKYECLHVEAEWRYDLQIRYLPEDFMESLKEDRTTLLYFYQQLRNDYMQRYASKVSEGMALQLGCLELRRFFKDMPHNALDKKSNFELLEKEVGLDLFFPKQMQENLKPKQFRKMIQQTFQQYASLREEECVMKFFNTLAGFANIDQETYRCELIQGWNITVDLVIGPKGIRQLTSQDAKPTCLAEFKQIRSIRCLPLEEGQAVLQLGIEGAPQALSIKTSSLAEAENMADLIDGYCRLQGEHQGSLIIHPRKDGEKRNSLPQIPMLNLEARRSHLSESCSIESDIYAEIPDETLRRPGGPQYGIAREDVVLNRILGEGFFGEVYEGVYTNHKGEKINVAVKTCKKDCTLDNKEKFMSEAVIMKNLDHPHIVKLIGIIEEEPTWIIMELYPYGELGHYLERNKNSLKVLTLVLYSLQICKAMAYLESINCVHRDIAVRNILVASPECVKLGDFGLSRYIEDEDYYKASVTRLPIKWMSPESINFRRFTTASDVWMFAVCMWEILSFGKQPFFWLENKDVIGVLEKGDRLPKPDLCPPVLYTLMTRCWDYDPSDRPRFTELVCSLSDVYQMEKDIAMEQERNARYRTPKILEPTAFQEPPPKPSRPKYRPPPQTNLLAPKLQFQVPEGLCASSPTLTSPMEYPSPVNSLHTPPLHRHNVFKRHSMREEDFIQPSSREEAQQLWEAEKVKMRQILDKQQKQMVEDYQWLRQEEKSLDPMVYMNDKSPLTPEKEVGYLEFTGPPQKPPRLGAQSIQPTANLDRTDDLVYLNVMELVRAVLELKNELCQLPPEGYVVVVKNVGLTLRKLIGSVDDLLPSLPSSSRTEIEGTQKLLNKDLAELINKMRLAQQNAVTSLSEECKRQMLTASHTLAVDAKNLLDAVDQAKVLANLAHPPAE
Excerpt: as §1

[4] = biological target: T31, RPS6KA1(Kin.Dom.1-N-terminal) (Homo sapiens, UniProt Q15418); conditions: compound concentration 10 uM, read-out: Percent Competition
T31 construct: RPS6KA1(Kin.Dom.1-N-terminal); purchased Ambit Biosciences (KINOMEscan)
T31 sequence (Q15418 1-391 limits assumed): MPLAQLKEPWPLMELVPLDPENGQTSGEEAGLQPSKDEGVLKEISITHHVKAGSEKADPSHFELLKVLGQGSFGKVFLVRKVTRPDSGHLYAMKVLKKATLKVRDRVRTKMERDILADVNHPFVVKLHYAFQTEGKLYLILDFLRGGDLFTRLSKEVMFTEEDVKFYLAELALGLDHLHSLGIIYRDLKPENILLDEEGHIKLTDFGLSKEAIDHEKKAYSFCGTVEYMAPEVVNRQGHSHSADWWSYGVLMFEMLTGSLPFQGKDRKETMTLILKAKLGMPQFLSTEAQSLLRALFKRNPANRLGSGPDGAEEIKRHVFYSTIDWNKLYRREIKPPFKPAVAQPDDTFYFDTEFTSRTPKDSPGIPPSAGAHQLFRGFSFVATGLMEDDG
Excerpt: as §1

PIK3CG = biological target: T32, PIK3CG (Homo sapiens, UniProt P48736); conditions: compound concentration 10 uM, read-out: Percent Competition
T32 construct: purchased Ambit Biosciences (KINOMEscan)
T32 sequence (P48736 whole entry): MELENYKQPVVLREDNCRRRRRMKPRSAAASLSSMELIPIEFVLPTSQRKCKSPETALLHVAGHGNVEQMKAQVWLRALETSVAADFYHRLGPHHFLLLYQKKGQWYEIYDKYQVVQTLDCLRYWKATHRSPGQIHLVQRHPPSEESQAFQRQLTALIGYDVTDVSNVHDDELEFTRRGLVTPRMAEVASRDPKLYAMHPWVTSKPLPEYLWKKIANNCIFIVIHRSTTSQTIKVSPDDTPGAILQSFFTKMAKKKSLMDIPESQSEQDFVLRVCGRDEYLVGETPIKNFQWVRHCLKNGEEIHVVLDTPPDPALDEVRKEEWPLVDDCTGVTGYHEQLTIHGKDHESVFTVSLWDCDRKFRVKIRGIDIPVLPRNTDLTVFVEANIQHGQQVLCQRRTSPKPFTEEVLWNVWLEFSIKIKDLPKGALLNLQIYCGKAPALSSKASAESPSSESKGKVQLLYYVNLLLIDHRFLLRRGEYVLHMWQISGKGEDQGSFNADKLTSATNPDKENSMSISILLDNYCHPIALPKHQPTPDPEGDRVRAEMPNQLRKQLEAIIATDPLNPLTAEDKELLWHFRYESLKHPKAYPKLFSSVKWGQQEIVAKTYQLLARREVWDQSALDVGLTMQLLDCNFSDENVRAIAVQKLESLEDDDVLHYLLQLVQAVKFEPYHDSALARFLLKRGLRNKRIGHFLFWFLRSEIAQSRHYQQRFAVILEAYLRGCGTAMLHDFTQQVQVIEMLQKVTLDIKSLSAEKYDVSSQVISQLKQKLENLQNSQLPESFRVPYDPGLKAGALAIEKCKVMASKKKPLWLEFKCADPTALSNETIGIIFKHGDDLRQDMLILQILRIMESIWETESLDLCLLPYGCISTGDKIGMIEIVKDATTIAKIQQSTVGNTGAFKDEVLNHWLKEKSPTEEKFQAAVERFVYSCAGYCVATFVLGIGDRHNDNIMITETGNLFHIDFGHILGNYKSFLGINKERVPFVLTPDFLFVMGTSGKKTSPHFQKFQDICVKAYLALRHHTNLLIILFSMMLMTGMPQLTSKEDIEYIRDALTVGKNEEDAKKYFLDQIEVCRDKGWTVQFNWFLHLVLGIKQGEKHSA
Excerpt: as §1

TAK1 = biological target: T33, TAK1 (Homo sapiens, UniProt O43318); conditions: compound concentration 10 uM, read-out: Percent Competition
T33 construct: purchased Ambit Biosciences (KINOMEscan)
Excerpt: as §1

PKN2 = biological target: T34, PKN2 (Homo sapiens, UniProt Q16513); conditions: compound concentration 10 uM, read-out: Percent Competition
T34 construct: purchased Ambit Biosciences (KINOMEscan)
Excerpt: as §1

FLT4 = biological target: T35, FLT4 (Homo sapiens, UniProt P35916); conditions: compound concentration 10 uM, read-out: Percent Competition
T35 construct: purchased Ambit Biosciences (KINOMEscan)
Excerpt: as §1

MELK = biological target: T36, MELK (Homo sapiens, UniProt Q14680); conditions: compound concentration 10 uM, read-out: Percent Competition
T36 construct: purchased Ambit Biosciences (KINOMEscan)
Excerpt: as §1

PIP5K1A = biological target: T37, PIP5K1A (Homo sapiens, UniProt Q99755); conditions: compound concentration 10 uM, read-out: Percent Competition
T37 construct: purchased Ambit Biosciences (KINOMEscan)
Excerpt: as §1

KIT(V559D,V654A) = biological target: T38, KIT(V559D,V654A) (Homo sapiens, UniProt P10721, V559D/V654A); conditions: compound concentration 10 uM, read-out: Percent Competition
T38 construct: purchased Ambit Biosciences (KINOMEscan)
Excerpt: as §1

MST1 = biological target: T39, MST1 (Homo sapiens, UniProt Q13043); conditions: compound concentration 10 uM
T39 construct: purchased Ambit Biosciences (KINOMEscan)
Excerpt: as §1

RIOK3 = biological target: T40, RIOK3 (Homo sapiens, UniProt O14730); conditions: compound concentration 10 uM, read-out: Percent Competition
T40 construct: purchased Ambit Biosciences (KINOMEscan)
T40 sequence (O14730 whole entry): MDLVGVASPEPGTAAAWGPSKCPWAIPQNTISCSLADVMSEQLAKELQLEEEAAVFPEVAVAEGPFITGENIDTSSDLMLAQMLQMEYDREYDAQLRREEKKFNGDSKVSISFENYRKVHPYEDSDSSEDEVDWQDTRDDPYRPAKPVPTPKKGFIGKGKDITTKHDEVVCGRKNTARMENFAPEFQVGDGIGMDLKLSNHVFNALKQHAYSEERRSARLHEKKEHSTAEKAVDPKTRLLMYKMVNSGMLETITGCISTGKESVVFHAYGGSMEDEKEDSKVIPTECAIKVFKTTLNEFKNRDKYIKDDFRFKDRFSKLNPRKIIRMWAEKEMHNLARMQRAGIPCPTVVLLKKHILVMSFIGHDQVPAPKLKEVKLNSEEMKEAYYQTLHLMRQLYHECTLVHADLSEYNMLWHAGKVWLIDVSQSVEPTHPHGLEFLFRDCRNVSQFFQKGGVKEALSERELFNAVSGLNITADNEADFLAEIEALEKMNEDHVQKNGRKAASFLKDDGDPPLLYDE
Excerpt: as §1

SMILES: Fc1ccc(-c2c(-c3ccncc3)[nH]c3nccnc23)cc1 [RO1155697-000-005]
- inhibition at 10 µM (SgK085): < 50%
- inhibition at 10 µM (AXL): < 50%
- Percent Competition (CHEK1): <50%
- inhibition at 10 µM (PIM2): < 50%
- inhibition at 10 µM (TIE2): < 50%
- Percent Competition (CDK8): <50%
- inhibition at 10 µM (MYO3A): < 50%
- inhibition at 10 µM (TNK2): < 50%
- inhibition at 10 µM (FLT3): < 50%
- inhibition at 10 µM (MINK): < 50%
- inhibition at 10 µM (MERTK): < 50%
- inhibition at 10 µM (PAK3): < 50%
- inhibition at 10 µM (LTK): < 50%
- Percent Competition [1]: <50%
- inhibition at 10 µM (INSRR): < 50%
- Percent Competition (MET): <50%
- inhibition at 10 µM (ASK1): < 50%
- inhibition at 10 µM (CSNK2A1): < 50%
- inhibition at 10 µM (TLK1): < 50%
- inhibition at 10 µM (ZAP70): < 50%
- Percent Competition [2]: <50%
- Percent Competition (PRKR): <50%
- inhibition at 10 µM (DMPK): < 50%
- inhibition at 10 µM (TESK1): < 50%
- inhibition at 10 µM [3]: < 50%
- inhibition at 10 µM (PIP5K2B): < 50%
- inhibition at 10 µM (PDGFRB): < 50%
- inhibition at 10 µM (DCAMKL3): < 50%
- inhibition at 10 µM (FES): < 50%
- inhibition at 10 µM (PYK2): < 50%
- inhibition at 10 µM [4]: < 50%
- inhibition at 10 µM (PIK3CG): < 50%
- inhibition at 10 µM (TAK1): < 50%
- inhibition at 10 µM (PKN2): < 50%
- inhibition at 10 µM (FLT4): < 50%
- inhibition at 10 µM (MELK): < 50%
- inhibition at 10 µM (PIP5K1A): < 50%
- inhibition at 10 µM (KIT(V559D,V654A)): < 50%
- Percent Competition (MST1): <50%
- inhibition at 10 µM (RIOK3): < 50%
